This note sets out measurements from article PMC6193737, “Ligand binding properties of two Brugia malayi fatty acid and retinol (FAR) binding proteins and their vaccine efficacies against challenge infection in gerbils” (PLoS Neglected Tropical Diseases, 2018).

Type in all cases: binding
Assay [1] concerns the target T1, rOv-FAR-2 (Onchocerca volvulus, UniProt C7DRP3).
T1 construct: recombinant from E. coli, produced by procedures similar to rBm-FAR-2 (His tag, IMAC, signal peptide removed)
Briefly: fluorescence emission enhancement. The conditions noted are these: PBS pH 7.2.

Assay [2] has as its target T2, rBm-FAR-1 (Brugia malayi, UniProt A0A0K0J905).
T2 construct: gene bma-far-1; signal peptide removed; C-terminal 6His tag; secreted from Pichia (PichiaPink strain 4, pPinkalpha-HC, codon optimised); IMAC; ~19 kDa
The assay is described as follows: fluorescence emission enhancement. The note with it: PBS pH 7.2.

Assay [3] deals with T3, rOv-FAR-1 (Onchocerca volvulus, UniProt Q25619).
T3 construct: recombinant from E. coli, produced by procedures similar to rBm-FAR-2 (His tag, IMAC, signal peptide removed)
T3 sequence (Q25619 17-178): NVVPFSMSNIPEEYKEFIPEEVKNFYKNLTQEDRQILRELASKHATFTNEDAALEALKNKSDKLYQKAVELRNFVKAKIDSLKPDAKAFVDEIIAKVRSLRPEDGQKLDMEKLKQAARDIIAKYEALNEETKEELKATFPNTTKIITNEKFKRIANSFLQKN
Briefly: fluorescence emission enhancement. The note with it: PBS pH 7.2.

Assay [4] addresses T3, rOv-FAR-1. Briefly: fluorescence emission enhancement and blue shift. The note with it: PBS pH 7.2; DAUDA ~1 uM; excitation 345 nm; fluorophore-tagged fatty acid.
For assay [5], the target named is T2, rBm-FAR-1. Briefly: fluorescence emission enhancement and blue shift. The note with it: PBS pH 7.2; DAUDA ~1 uM; excitation 345 nm; fluorophore-tagged fatty acid.
Where [6] appears, read: retinol ~4 uM, excitation 350 nm.

T2 sequence (A0A0K0J905 entry or part of it): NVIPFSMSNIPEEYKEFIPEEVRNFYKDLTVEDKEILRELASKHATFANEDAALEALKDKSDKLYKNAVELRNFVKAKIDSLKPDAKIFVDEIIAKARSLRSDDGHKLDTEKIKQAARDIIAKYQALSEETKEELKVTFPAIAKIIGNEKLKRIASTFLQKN
T1 sequence (C7DRP3 entry or part of it): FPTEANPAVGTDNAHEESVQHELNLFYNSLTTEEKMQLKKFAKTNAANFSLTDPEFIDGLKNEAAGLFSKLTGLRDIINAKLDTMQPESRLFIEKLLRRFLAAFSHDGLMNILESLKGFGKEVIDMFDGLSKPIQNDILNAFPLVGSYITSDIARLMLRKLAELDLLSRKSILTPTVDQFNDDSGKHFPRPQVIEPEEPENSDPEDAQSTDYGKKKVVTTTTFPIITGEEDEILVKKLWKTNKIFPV

As for `CC\C=C/C=C/C=C/C=C\CCCCCCCC(=O)O` [cis-parinaric acid], the fluorescence emission enhancement result in assay [1] (cPnA ~4 uM, excitation 319 nm) is “both FAR-1s and FAR-2s bind a natural, intrinsically fluorescent, fatty acid acid (cPnA)”; in assay [2] (cPnA ~4 uM, excitation 319 nm), “Both rBm-FAR-1 and rBm-FAR-2 bound cPnA”; in assay [3] (cPnA ~4 uM, excitation 319 nm) it was “both FAR-1s and FAR-2s bind a natural, intrinsically fluorescent, fatty acid acid (cPnA)”.
For `CN(C)c1cccc2c(S(=O)(=O)NCCCCCCCCCCC(=O)O)cccc12` [DAUDA, 11-((5-dimethylaminonaphthalene-1-sulfonyl)amino)undecanoic], the “fluorescence emission enhancement and blue shift” value in assay [4] was “FAR-1s bind DAUDA, yielding similarly substantial increases and blue shift”; in assay [5], “rBm-FAR-1 produced a large increase in DAUDA emission and a substantial blue-shift”.
`CC1=C(/C=C/C(C)=C/C=C/C(C)=C/CO)C(C)(C)CCC1` [all-trans retinol]: the results for the fluorescence emission enhancement entry in assay [1] (setting [6]), in assay [2] (setting [6]) and in assay [3] (setting [6]) were “the proteins from both parasites bind retinol”, “Addition of retinol to either rBm-FAR-1 or rBm-FAR-2 resulted in substantial increases in fluorescence emission” and “the proteins from both parasites bind retinol”, respectively.
